In patent US20200131144A1, “AMINE OR (THIO)AMIDE CONTAINING LXR MODULATORS” (Phenex-FXR GmbH, priority 2017, published 2020):
pEC50: −log10 of the molar value. Like-named read-outs stand apart in the source and are kept apart here.

Legend:
[1] = target: T1, GST-LXRβ ligand-binding domain (Homo sapiens, UniProt P55055, INS174Q); assay: TR-FRETβ activity assay (NCoA3 coactivator peptide recruitment); type: biochemical; conditions: 1 μM 24(S)-25-epoxycholesterol as prestimulating agonist; inverse agonist unless *
T1 construct: amino acids 156-461; NP009052; made in house; host or cells: E. coli
T1 sequence (P55055 with tags, fused parts or gaps INS174Q limits assumed): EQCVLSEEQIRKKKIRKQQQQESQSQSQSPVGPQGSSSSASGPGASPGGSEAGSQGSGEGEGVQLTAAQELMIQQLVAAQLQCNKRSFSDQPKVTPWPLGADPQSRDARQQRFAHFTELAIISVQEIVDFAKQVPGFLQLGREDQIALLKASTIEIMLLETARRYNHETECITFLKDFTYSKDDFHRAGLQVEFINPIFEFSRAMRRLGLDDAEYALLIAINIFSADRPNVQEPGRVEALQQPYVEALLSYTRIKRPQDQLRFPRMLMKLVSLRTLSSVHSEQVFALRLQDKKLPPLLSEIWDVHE
Outline: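 Coactivator recruitment read as TR-FRET (ex 340, em 615 and 665 nm) after 1 h equilibration at 4° C, in triplicate. Mix held 76 nM GST-tagged LXRβ LBD (aa 156-461, E. coli), 400 nM biotin-NCoA3 peptide, Tb-cryptate anti-GST, streptavidin-XL665, 240 mM KCl buffer.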

[2] = target: T2, LXRα ligand-binding domain (LBD) (Homo sapiens, UniProt Q13133); assay: LXR Gal4 reporter transient transfection assay, mammalian two-hybrid, LBD-M2H Gal4α; type: cell-based; conditions: HEK293 cells; inverse agonist unless *
T2 construct: expressed in transfected cells; host or cells: HEK293
T2 sequence (Q13133 155-447): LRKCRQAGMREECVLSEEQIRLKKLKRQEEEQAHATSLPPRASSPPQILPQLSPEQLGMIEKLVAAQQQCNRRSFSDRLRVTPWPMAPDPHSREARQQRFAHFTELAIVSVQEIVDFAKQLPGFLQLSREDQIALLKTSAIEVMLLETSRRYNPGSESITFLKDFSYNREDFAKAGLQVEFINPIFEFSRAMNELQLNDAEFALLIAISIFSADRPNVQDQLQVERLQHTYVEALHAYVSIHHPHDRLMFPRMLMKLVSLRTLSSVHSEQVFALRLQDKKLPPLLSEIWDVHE
Procedure: (§1) The tested compounds were usually dissolved, tested and stored as 20 mM stock solutions in DMSO. Since sulfonyl acetic acid derivatives tend to decarboxylate under these conditions, these stock solutions were prepared, tested and stored as 20 mM DMSO stock solutions containing 100 mM trifluoroacetic acid (5 equivalents). Sulfonyl acetic acid derivatives are shelf stable as solid at rt for long time as reported by Griesbrecht et al. (Synlett 2010:374) or Faucher et al. (J. Med. Chem. 2004; 47:18).
(§2) LXR Gal4 Reporter Transient Transfection Assays
(§3) LXRα and LXRβ activity status was determined via detection of interaction with coactivator and corepressor proteins in mammalian two-hybrid experiments (M2H). For this, via transient transfection the full length (FL) proteins of LXRα (amino acids 1-447; NP005684; SEQ ID NO:1) or LXRβ-(amino acids 1-461; NP009052; SEQ ID NO:2) or the ligand-binding domains (LBD) of LXRα (amino acids 155-447 SEQ ID NO:3) or LXR (amino acids 156-461; SEQ ID NO:4) were expressed from pCMV-AD (Stratagene) as fusions to the transcriptional activation domain of NFkB. As cofactors, domains of either the steroid receptor coactivator 1 (SRC1; amino acids 552-887; SEQ ID NO:5) or of the corepressor NCoR (amino acids 1906-2312; NP006302; SEQ ID NO:6) were expressed as fusions to the DNA binding domain of the yeast transcription factor GAL4 (from pCMV-BD; Stratagene). Interaction was monitored via activation of a coexpressed Firefly Luciferase Reporter gene under control of a promoter containing repetitive GAL4 response elements (vector pFRLuc; Stratagene). Transfection efficiency was controlled via cotransfection of constitutively active pRL-CMV Renilla reniformis luciferase reporter (Promega). HEK293 cells were grown in minimum essential medium (MEM) with 2 mM L-glutamine and Earle's balanced salt solution supplemented with 8.3% fetal bovine serum, 0.1 mM non-essential amino acids, 1 mM sodium pyruvate, at 37° C. in 5% CO2. 3.5×10^4 cells/well were plated in 96-well cell culture plates in growth medium supplemented with 8.3% fetal bovine serum for 16-20 h to—90% confluency. For transfection, medium was taken off and LXR and cofactor expressing plasmids as well as the reporter plasmids are added in 30 μL OPTIMEM/well including polyethylene-imine (PEI) as vehicle. Typical amounts of plasmids transfected/well: pCMV-AD-LXR (5 ng), pCMV-BD-cofactor (5 ng), pFR-Luc (100 ng), pRL-CMV (0.5 ng). Compound stocks were prepared in DMSO, prediluted in MEM to a total volume of 120 μL, and added 4 h after addition of the transfection mixture (final vehicle concentration not exceeding 0.2%). Cells were incubated for additional 16 h, lysed for 10 min in 1×Passive Lysis Buffer (Promega) and Firefly and Renilla luciferase activities were measured sequentially in the same cell extract using buffers containing D-luciferine and coelenterazine, respectively. Measurements of luminescence were done in a BMG-luminometer.

[3] = target: T3, LXRβ ligand-binding domain (LBD) (Homo sapiens, UniProt P55055, INS174Q); assay: LXR Gal4 reporter transient transfection assay, mammalian two-hybrid, LBD-M2H Gal4β; type: cell-based; conditions: HEK293 cells; inverse agonist unless *
T3 construct: or LXR (amino acids 156-461); expressed in transfected cells; host or cells: HEK293
T3 sequence (P55055 with tags, fused parts or gaps INS174Q limits assumed): T1 sequence (P55055 with tags, fused parts or gaps INS174Q limits assumed)
Procedure: as §1, §2, §3

LXRα full length (FL) = target: T4, LXRα full length (FL) (Homo sapiens, UniProt Q13133); assay: LXR Gal4 reporter transient transfection assay, mammalian two-hybrid, FL-M2H Gal4α; type: cell-based; conditions: HEK293 cells; inverse agonist unless *
T4 construct: the full length (FL) proteins of LXRα (amino acids 1-447); NP005684; expressed in transfected cells; host or cells: HEK293
T4 sequence (Q13133 1-447): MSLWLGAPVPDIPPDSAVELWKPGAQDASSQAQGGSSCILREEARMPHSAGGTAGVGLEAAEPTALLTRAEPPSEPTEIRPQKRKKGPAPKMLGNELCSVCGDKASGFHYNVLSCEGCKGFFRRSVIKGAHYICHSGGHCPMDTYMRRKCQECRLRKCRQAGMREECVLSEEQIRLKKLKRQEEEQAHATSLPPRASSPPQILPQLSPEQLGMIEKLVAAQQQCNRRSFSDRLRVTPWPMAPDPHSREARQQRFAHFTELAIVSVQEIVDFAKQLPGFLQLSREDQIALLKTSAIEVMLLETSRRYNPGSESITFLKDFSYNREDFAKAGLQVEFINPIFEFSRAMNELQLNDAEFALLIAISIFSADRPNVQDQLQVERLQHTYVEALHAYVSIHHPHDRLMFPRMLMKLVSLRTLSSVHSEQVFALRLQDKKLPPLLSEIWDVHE
Outline: (§4)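 Mammalian two-hybrid read-out: interaction of LXRα or LXRβ (full length or ligand-binding domain, NFkB activation-domain fusions) with GAL4-fused SRC1 or NCoR domains drives GAL4-responsive firefly luciferase in HEK293 cells, normalised by Renilla cotransfection. Compounds given 4 h after transfection, ≤0.2% vehicle, cells lysed after 16 h.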

[4] = Short term HFD mouse model: liver and plasma exposure after multiple oral dosing; type: in vivo, mice (C57BL/6J); conditions: C57BL/6J, HFD mice, three oral doses of 10 mg/kg each, 4 h after final dose
Description: Short Term HFD Mouse Model:
For this, C57BL/6J were purchased from Elevage Janvier (Rennes, France) at the age of 8 weeks. After an acclimation period of two weeks, animals were prefed on a high fat diet (HFD) (Ssniff Spezialdiäten GmbH, Germany, Surwit EF D12330 mod, Cat. No. E15771-34), with 60 kcal % from fat plus 1% (w/w) extra cholesterol (Sigma-Aldrich, St. Louis, Mo.) for 5 days. Animals were maintained on this diet during treatment with LXR modulators. The test compounds were formulated in 0.5% hydroxypropylmethylcellulose (HPMC) and administered in three doses (from 1.5 to 20 mg/kg each) by oral gavage according to the following schedule: on day one, animals received treatment in the morning and the evening (ca. 17:00), on day two animals received the final treatment in the morning after a 4 h fast and were sacrificed 4 h thereafter. Animal work was conducted according to the national guidelines for animal care in Germany.
Multiple oral dosing of compounds from the present invention in mice lead to a high liver exposure with a favourable liver to plasma ratio. […] These genes are related to hepatic de-novo lipogenesis. A suppression of these genes will reduce liver fat (liver triglycerides).

LXRβ full length (FL) = target: T5, LXRβ full length (FL) (Homo sapiens, UniProt P55055, INS174Q); assay: LXR Gal4 reporter transient transfection assay, mammalian two-hybrid, FL-M2H Gal4β; type: cell-based; conditions: HEK293 cells; inverse agonist unless *
T5 construct: the full length (FL) proteins of LXRα (amino acids 1-447); NP005684; NP009052; expressed in transfected cells; host or cells: HEK293
T5 sequence (P55055 with tags, fused parts or gaps INS174Q): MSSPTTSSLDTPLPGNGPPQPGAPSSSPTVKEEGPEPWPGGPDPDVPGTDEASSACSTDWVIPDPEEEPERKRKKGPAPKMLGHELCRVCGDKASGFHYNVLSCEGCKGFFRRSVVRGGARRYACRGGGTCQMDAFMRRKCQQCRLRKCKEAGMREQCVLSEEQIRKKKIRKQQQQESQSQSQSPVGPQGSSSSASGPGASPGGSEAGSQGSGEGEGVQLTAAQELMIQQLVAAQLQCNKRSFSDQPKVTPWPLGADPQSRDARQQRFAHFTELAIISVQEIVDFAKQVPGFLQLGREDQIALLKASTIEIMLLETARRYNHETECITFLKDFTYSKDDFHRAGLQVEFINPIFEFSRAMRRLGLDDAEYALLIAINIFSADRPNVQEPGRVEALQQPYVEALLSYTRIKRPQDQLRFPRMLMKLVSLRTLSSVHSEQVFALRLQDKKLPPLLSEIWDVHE
Outline: as §4

[5] = Pharmacokinetics in mice after single oral dosing, blood and liver exposure by LC-MS; type: in vivo, mice (C57/bl6/J); conditions: single oral dose 20 mg/kg, time point 4 h; for Kp at 4 h: male, C57/bl6/J, mouse, liver/blood, read-out: liver/blood ratio
Procedure: The pharmacokinetics of the compounds was assessed in mice after single dosing and oral administrations. Blood and liver exposure was measured via LC-MS.
The study design was as follows:
Animals: C57/bl6/J (Janvier) males Diet: standard rodent chow Dose: 20 mg/kg Animal handling: animals were withdrawn from food at least 12 h before administration Design: single dose oral administration, n=3 animals per group Sacrifice: at stated time point (4, 12 or 24 h) after administration Bioanalytics: LC-MS of liver and blood samples

Compound | pEC50 [2] | pEC50 [3] | pEC50 [1] | pEC50 (LXRα full length (FL)) | other results
CC(C)(C(=O)O)c1cccc(-c2ccc(CN(Cc3ccc(C(F)(F)F)o3)Cc3cccc4nonc34)cc2)c1 [25/1] | 6.00 to 7.00 | > 7.00 | – | – | FRETβ [1]: B*
Cc1ccc2cccnc2c1CN(Cc1ccc(-c2cccc(C(C)(C)C(=O)O)c2)cc1)Cc1ccc(C(F)(F)F)o1 [24/2] | 6.00 to 7.00 | > 7.00 | 5.00 to 6.00 | – | –
CC(C)(C(=O)O)c1cccc(-c2ccc(CN(Cc3ccc(C(F)(F)F)o3)Cc3c(OC(F)F)ccc4ccccc34)cc2)c1 [27/68] | > 7.00 | > 7.00 | > 7.00 | – | –
Cc1ccc2ccccc2c1CN(Cc1ccc(-c2cccc(CC(C)(C)C(=O)O)c2)cc1)Cc1ccc(C(F)(F)F)o1 [26/2] | 6.00 to 7.00 | > 7.00 | 5.00 to 6.00 | – | –
COc1cc(CN(Cc2ccc(C(F)(F)F)o2)Cc2c(C)ccc3ccccc23)ccc1-c1cccc(C(C)(C)C(=O)O)c1 [22/1] | – | 6.00 to 7.00 | 5.00 to 6.00 | – | –
Cc1nc2ccccc2nc1CN(Cc1ccc(-c2cccc(C(C)(C)C(=O)O)c2)cc1)Cc1ccc(C(F)(F)F)o1 [Example 25] | – | 6.00 to 7.00 | < 5.00 | – | –
Cc1ccc2ccccc2c1CN(Cc1ccc(-c2cccc([C@@H](C)C(=O)O)c2)cc1)Cc1ccc(C(F)(F)F)o1 [27/72] | – | – | 6.00 to 7.00 | > 7.00 | concentration at 4 h ([4]; liver, read-out: liver exposure, 4 h): 2020 nM; Kp at 4 h ([4]; liver/plasma, read-out: liver/plasma ratio, 4 h): 1.4; concentration at 4 h ([4]; plasma, read-out: plasma exposure, 4 h): 1440 nM
Cc1cc(C)c(CN(Cc2ccc(-c3cc(F)c(CO)c(S(=O)(=O)CC(=O)O)c3)cc2)Cc2ccc(C(F)(F)F)o2)c(C)c1 [20/1] | – | – | 6.00 to 7.00 | 5.00 to 6.00 | pEC50 (LXRβ full length (FL)): 6.00 to 7.00; Kp at 4 h [5]: 64; blood/plasma exposure [5]: 1.0 µM; liver exposure [5]: 64 µM
CC(C)(C(=O)O)c1cccc(-c2ccc(CN(Cc3ccc(C(F)(F)F)o3)Cc3cccc4c3OC(F)(F)O4)cc2)c1 [25/2] | 6.00 to 7.00 | > 7.00 | – | – | –
Cc1ccc2ccccc2c1CN(Cc1ccc(C(F)(F)F)o1)Cc1cnc(-c2cccc(C(C)(C)C(=O)O)c2)s1 [22/2] | – | 6.00 to 7.00 | 5.00 to 6.00 | – | –
Cc1c(CN(Cc2ccc(-c3cccc(C(C)(C)C(=O)O)c3)cc2)Cc2ccc(C(F)(F)F)o2)c2ccccc2n(C)c1=O [27/23] | – | – | 6.00 to 7.00 | > 7.00 | pEC50 (LXRβ full length (FL)): > 7.00; Kp at 4 h [5]: 19; blood/plasma exposure [5]: 0.15 µM; liver exposure [5]: 2.9 µM
N#Cc1ccc2ccccc2c1CN(Cc1ccc(-c2cccc(S(=O)(=O)CC(=O)O)c2)cc1)Cc1ccc(C(F)(F)F)o1 [7/7] | – | – | 5.00 to 6.00 | 5.00 to 6.00 | pEC50 (LXRβ full length (FL)): 6.00 to 7.00; Kp at 4 h [5]: 44; blood/plasma exposure [5]: 0.01 µM; liver exposure [5]: 0.42 µM
Cc1ccc2ccccc2c1CN(Cc1ccc(-c2nc(C(C)(C)C(=O)O)cs2)cc1)Cc1ccc(C(F)(F)F)o1 [26/3] | – | > 7.00 | 5.00 to 6.00 | – | –
